In ChEMBL document CHEMBL1131945, “Nonpeptide small-molecular inhibitors of dipeptidyl peptidase IV: N-phenylphthalimide analogs” (Bioorg Med Chem Lett, 1999):
Values joined by “and” are separate entries in the source; they are usually repeats but may differ in a detail not shown here. Equal values may be shown once.

What was measured:
[1] = Cytotoxicity in human embryonic lung flbroblast Wl-38 cells using WST-1 viability assay
Dipeptidyl peptidase 4 = Dipeptidyl peptidase 4 (Homo sapiens, UniProt P27487); assay: Inhibitory activity against Dipeptidylpeptidase IV (DPP IV) in human acute lymphoblastic leukemia MOLT-4 cell line; type: cell-based
Chain of Dipeptidyl peptidase 4 (P27487 whole entry): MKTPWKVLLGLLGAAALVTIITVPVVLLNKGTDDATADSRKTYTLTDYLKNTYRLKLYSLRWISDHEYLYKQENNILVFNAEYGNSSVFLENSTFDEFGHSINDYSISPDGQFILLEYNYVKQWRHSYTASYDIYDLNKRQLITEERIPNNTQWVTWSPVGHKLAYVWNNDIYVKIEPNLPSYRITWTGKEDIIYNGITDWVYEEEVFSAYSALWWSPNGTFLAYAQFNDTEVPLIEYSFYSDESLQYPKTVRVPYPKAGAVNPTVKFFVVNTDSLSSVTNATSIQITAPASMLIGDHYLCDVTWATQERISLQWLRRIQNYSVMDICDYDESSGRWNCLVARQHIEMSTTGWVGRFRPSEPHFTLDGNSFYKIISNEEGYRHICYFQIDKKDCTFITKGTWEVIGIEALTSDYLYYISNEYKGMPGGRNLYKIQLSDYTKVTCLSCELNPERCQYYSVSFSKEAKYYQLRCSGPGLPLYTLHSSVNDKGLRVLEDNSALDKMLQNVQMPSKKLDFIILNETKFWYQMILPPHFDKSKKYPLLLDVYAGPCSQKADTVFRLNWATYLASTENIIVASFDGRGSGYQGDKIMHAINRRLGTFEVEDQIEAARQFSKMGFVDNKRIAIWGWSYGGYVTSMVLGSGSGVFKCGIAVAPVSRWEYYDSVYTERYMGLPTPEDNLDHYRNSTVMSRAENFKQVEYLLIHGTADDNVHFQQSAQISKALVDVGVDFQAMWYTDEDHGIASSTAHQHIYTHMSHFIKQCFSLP

Aminopeptidase N = Aminopeptidase N (Homo sapiens, UniProt P15144); assay: Inhibitory activity against aminopeptidase N (APN) in human acute lymphoblastic leukemia MOLT-4 cell line; type: cell-based
Chain of Aminopeptidase N (P15144 whole entry): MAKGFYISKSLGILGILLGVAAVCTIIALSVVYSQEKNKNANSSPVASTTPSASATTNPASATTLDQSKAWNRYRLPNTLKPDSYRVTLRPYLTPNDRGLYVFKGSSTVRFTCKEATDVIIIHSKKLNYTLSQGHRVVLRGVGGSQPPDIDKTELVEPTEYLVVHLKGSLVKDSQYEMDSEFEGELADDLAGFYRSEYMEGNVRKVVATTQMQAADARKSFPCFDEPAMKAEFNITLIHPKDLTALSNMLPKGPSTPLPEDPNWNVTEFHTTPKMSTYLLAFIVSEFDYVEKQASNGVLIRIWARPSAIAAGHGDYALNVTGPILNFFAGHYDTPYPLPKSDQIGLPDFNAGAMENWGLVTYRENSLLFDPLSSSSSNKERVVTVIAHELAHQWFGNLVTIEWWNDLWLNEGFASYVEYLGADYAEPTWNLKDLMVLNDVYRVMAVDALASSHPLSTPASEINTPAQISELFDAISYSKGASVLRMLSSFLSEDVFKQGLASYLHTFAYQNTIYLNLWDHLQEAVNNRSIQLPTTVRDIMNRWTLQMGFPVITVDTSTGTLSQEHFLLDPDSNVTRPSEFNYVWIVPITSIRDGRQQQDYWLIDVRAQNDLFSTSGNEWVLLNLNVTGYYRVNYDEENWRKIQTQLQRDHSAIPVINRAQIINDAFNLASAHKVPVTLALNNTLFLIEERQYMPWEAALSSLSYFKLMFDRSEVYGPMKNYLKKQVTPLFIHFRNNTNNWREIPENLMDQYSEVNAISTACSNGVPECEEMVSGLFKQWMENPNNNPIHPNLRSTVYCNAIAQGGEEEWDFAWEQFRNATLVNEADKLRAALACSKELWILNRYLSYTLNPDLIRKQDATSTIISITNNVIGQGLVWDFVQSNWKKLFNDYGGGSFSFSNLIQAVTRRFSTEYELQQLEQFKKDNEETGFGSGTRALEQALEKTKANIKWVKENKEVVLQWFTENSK

Cc1cccc(C)c1N1C(=O)c2ccc([N+](=O)[O-])cc2C1=O
IC50 [1]: > 100 µg/mL
IC50 (Dipeptidyl peptidase 4): > 338 µM
IC50 (Aminopeptidase N): > 338 µM

CC(C)c1cccc(C(C)C)c1N1C(=O)c2c(F)c(F)c(F)c(F)c2C1=S
IC50 [1]: > 100 µg/mL and > 253 µM
IC50 (Dipeptidyl peptidase 4): 30.3 µM and 30.4 µM

Cc1cccc(C)c1N1C(=O)c2cccc([N+](=O)[O-])c2C1=O
IC50 [1]: > 100 µg/mL
IC50 (Dipeptidyl peptidase 4): > 338 µM
IC50 (Aminopeptidase N): > 338 µM

CC(C)c1cccc(C(C)C)c1N1C(=S)c2c(F)c(F)c(F)c(F)c2C1=S
IC50 [1]: 1.4 µg/mL and 3.4 µM
IC50 (Dipeptidyl peptidase 4): 36.7 µM

CCc1cccc(CC)c1N1C(=O)c2cccc(O)c2C1=O
IC50 [1]: > 100 µg/mL and > 339 µM
IC50 (Dipeptidyl peptidase 4): 43.3 µM

CSc1ccccc1N1C(=O)c2cccc([N+](=O)[O-])c2C1=O
IC50 [1]: > 100 µg/mL
IC50 (Dipeptidyl peptidase 4): > 318 µM
IC50 (Aminopeptidase N): > 318 µM

Cc1cccc(C)c1N1C(=O)c2cccc(O)c2C1=O
IC50 [1]: > 100 µg/mL
IC50 (Dipeptidyl peptidase 4): > 374 µM

Cc1cccc(C)c1N1C(=O)c2ccc(N)cc2C1=O
IC50 [1]: > 100 µg/mL and > 376 µM

CC(C)c1cccc(C(C)C)c1N1C(=O)c2ccc(O)cc2C1=O
IC50 [1]: 12.7 µg/mL and 39.3 µM

Cc1cccc(C)c1N1C(=O)c2cccc(N)c2C1=O
IC50 [1]: > 100 µg/mL and > 376 µM
IC50 (Dipeptidyl peptidase 4): 60.1 µM
IC50 (Aminopeptidase N): 109 µM

CC(C)c1cccc(C(C)C)c1N1C(=O)c2ccccc2C1=S
IC50 [1]: 60.5 µg/mL and 187 µM
IC50 (Dipeptidyl peptidase 4): 57.8 µM
IC50 (Aminopeptidase N): > 309 µM and 309 µM

CSc1ccccc1N1C(=O)c2cccc(O)c2C1=O
IC50 [1]: > 100 µg/mL and > 350 µM
IC50 (Dipeptidyl peptidase 4): 226 µM
IC50 (Aminopeptidase N): 134 µM

Cc1cccc(C)c1N1C(=O)c2ccc(O)cc2C1=O
IC50 [1]: > 100 µg/mL and > 374 µM

CC(C)c1cccc(C(C)C)c1N1C(=O)c2cccc(O)c2C1=O
IC50 [1]: > 100 µg/mL and > 309 µM

CCc1cccc(CC)c1N1C(=O)c2ccc(O)cc2C1=O
IC50 [1]: 52 µg/mL and 176 µM

CC(C)c1cccc(C(C)C)c1N1C(=O)c2ccccc2C1=O
IC50 [1]: > 100 µg/mL
IC50 (Dipeptidyl peptidase 4): > 325 µM

Cc1cccc(C)c1N1C(=O)c2ccccc2C1=O
IC50 [1]: > 100 µg/mL
IC50 (Dipeptidyl peptidase 4): > 398 µM

CC(C)c1cccc(C(C)C)c1N1C(=O)c2ccc(N)cc2C1=O
IC50 [1]: > 100 µg/mL and > 310 µM

CC(C)c1cccc(C(C)C)c1N1C(=O)c2cccc([N+](=O)[O-])c2C1=O
IC50 [1]: 93.1 µg/mL and 264 µM
IC50 (Dipeptidyl peptidase 4): > 284 µM

CC(C)c1cccc(C(C)C)c1N1C(=O)c2ccc([N+](=O)[O-])cc2C1=O
IC50 [1]: 42.7 µg/mL and 121 µM
IC50 (Dipeptidyl peptidase 4): > 284 µM
